{"source": "paper PMC6375636", "about": "“Monotherapy with a low-dose lipopeptide HIV fusion inhibitor maintains long-term viral suppression in rhesus macaques” (PLoS Pathogens, 2019)", "key": {"[1]": {"target": "T1, gp41 NHR-derived target mimic peptide N39 (Human immunodeficiency virus type 1 group M subtype B, UniProt P04578)", "T1 construct": "the gp41 NHR-derived target mimic peptide N39", "T1 sequence (P04578 528-566)": "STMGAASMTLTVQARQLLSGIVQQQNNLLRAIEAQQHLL", "assay": "CD spectroscopy of lipopeptides in complex with target mimic peptide N39", "type": "binding, HIV-1", "design": "[θ]222: unit not given here", "conditions": "complex with N39, each peptide 10 μM in PBS; representative of 2 assays", "excerpt": "Spectra were corrected by subtracting a solvent blank."}, "[2]": {"conditions": "lipopeptide alone, 10 μM in PBS, representative of 2 assays; for Helix content (%): [θ]222 / -33,000"}, "[3]": {"test_system": "HIV-1NL4-3(D36G) pseudovirus", "type": "cell-based", "experimental": "(§1) The inhibitory activities of inhibitors against HIV-1 pseudoviruses and replication-competent isolates were measured as described previously. Briefly, HIV-1 pseudoviruses were generated via the cotransfection of HEK293T cells with an Env-expressing plasmid and a backbone plasmid that encodes Env-defective, luciferase-expressing HIV-1 genome (pSG3Δenv). Viral stocks of replication-competent HIV-1 isolates were generated by transfecting viral molecular clones into HEK293T cells. […] Inhibitors were prepared in 3-fold dilutions, mixed with 100 TCID50 of a virus, and then incubated for 1 h at room temperature. […] Luciferase activity was measured as described above."}, "[4]": {"test_system": "NL4-3V38A pseudovirus", "type": "cell-based, HIV-1", "conditions": "T-20 resistant, mean ± SD of 3 assays in triplicate", "experimental": "as §1"}, "[5]": {"test_system": "NL4-3WT pseudovirus", "type": "cell-based, HIV-1", "conditions": "T-20 resistant, mean ± SD of 3 assays in triplicate, value in parentheses behind the bound", "experimental": "as §1"}, "[6]": {"test_system": "NL4-3N43K pseudovirus", "type": "cell-based, HIV-1", "conditions": "T-20 resistant, mean ± SD of 3 assays in triplicate", "experimental": "as §1"}, "[7]": {"test_system": "NL4-3G36S/V38M pseudovirus", "type": "cell-based, HIV-1", "conditions": "T-20 resistant, mean ± SD of 3 assays in triplicate", "experimental": "as §1"}, "[8]": {"test_system": "NL4-3Q40H pseudovirus", "type": "cell-based, HIV-1", "conditions": "T-20 resistant, mean ± SD of 3 assays in triplicate", "experimental": "as §1"}, "[9]": {"test_system": "NL4-3I37T pseudovirus", "type": "cell-based, HIV-1", "conditions": "T-20 resistant, mean ± SD of 3 assays in triplicate", "experimental": "as §1"}, "[10]": {"test_system": "NL4-3V38M pseudovirus", "type": "cell-based, HIV-1", "conditions": "T-20 resistant, mean ± SD of 3 assays in triplicate", "experimental": "as §1"}, "[11]": {"test_system": "NL4-3V38A/N42T pseudovirus", "type": "cell-based, HIV-1", "conditions": "T-20 resistant, mean ± SD of 3 assays in triplicate", "experimental": "as §1"}, "[12]": {"test_system": "NL4-3I37T/N43K pseudovirus", "type": "cell-based, HIV-1", "conditions": "T-20 resistant, mean ± SD of 3 assays in triplicate", "experimental": "as §1"}, "[13]": {"conditions": "Fig 1, NL4-3(D36G) pseudovirus, mean ± SD of three assays in triplicate, read-out: Anti-HIV activity (IC50, pM) NL4-3 entry"}, "[14]": {"conditions": "Table 4, NL4-3D36G, T-20 sensitive, mean ± SD of 3 assays in triplicate, value in parentheses behind the bound, read-out: IC50"}}, "note": "Like-named read-outs stand apart in the source and are kept apart here. Peptide text beside a SMILES is read from it. * marks the point of attachment. Stearoyl = CCCCCCCCCCCCCCCCCC(=O)*; Palmitoyl = CCCCCCCCCCCCCCCC(=O)*", "data": [{"compound": "CCCCCCCCCCCCCCCC(=O)NCCCC[C@H](NC(=O)[C@H](CCC(=O)O)NC(=O)[C@H](CC(C)C)NC(=O)[C@H](CCCCN)NC(=O)[C@H](CCCCN)NC(=O)[C@H](CC(C)C)NC(=O)[C@H](CCC(=O)O)NC(=O)[C@H](CCC(=O)O)NC(=O)[C@H](CCC(=O)O)NC(=O)[C@H](CC(N)=O)NC(=O)[C@H](CCCCN)NC(=O)[C@H](CCCCN)NC(=O)[C@H](CCC(N)=O)NC(=O)[C@H](CCC(N)=O)NC(=O)[C@H](CCC(=O)O)NC(=O)[C@H](CCC(=O)O)NC(=O)[C@H](C)NC(=O)[C@H](CCCCN)NC(=O)[C@H](CCCCN)NC(=O)[C@H](CC(C)C)NC(=O)[C@H](CC(C)C)NC(=O)[C@H](CCC(=O)O)NC(=O)[C@H](CCC(=O)O)NC(=O)[C@@H](NC(=O)[C@H](CCCCN)NC(=O)[C@H](CCC(N)=O)NC(=O)[C@H](CCC(=O)O)NC(=O)[C@H](Cc1c[nH]c2ccccc12)NC(C)=O)[C@@H](C)CC)C(N)=O", "note": "[LP-52, reference compound] (Ac-WEQKIEELLKKAEEQQKKNEEELKKLEK(Palmitoyl)-NH2)", "values": [{"measurement": "Helix content (%)", "setting": "[1]", "result": 64, "unit": "%"}, {"measurement": "[θ]222", "setting": "[1]", "result": -21060}, {"measurement": "[θ]222", "setting": "[2]; room temperature", "result": -14952, "unit": "degree.cm^2.dmol^-1"}, {"measurement": "Helix content (%)", "setting": "[2]", "result": 45, "unit": "%"}, {"measurement": "Tm (°C)", "setting": "[2]; ellipticity at 222 nm, 20-98°C, 2°C/min", "result": 56, "unit": "°C"}, {"measurement": "IC50", "setting": "[3]; [13]", "result": "6.12 ± 0.25", "unit": "pM"}]}, {"compound": "CCCCCCCCCCCCCCCCCC(=O)NCCCC[C@H](NC(=O)[C@H](CCC(=O)O)NC(=O)[C@H](CC(C)C)NC(=O)[C@H](CCCCN)NC(=O)[C@H](CCCCN)NC(=O)[C@H](CC(C)C)NC(=O)[C@H](CCC(=O)O)NC(=O)[C@H](CCC(=O)O)NC(=O)[C@H](CCC(=O)O)NC(=O)[C@H](CC(N)=O)NC(=O)[C@H](CCCCN)NC(=O)[C@H](CCCCN)NC(=O)[C@H](CCC(N)=O)NC(=O)[C@H](CCC(N)=O)NC(=O)[C@H](CCC(=O)O)NC(=O)[C@H](CCC(=O)O)NC(=O)[C@H](C)NC(=O)[C@H](CCCCN)NC(=O)[C@H](CCCCN)NC(=O)[C@H](CC(C)C)NC(=O)[C@H](CC(C)C)NC(=O)[C@H](CCC(=O)O)NC(=O)[C@H](CCC(=O)O)NC(=O)[C@@H](NC(C)=O)[C@@H](C)CC)C(N)=O", "note": "[LP-90] (Ac-IEELLKKAEEQQKKNEEELKKLEK(Stearoyl)-NH2)", "values": [{"measurement": "Helix content (%)", "setting": "[1]", "result": 42, "unit": "%"}, {"measurement": "[θ]222", "setting": "[1]", "result": -13989}, {"measurement": "Helix content (%)", "setting": "[2]", "result": 30, "unit": "%"}, {"measurement": "IC50", "setting": "[4]", "result": "8.25 ± 0.55", "unit": "nM"}, {"measurement": "IC50", "setting": "[5]", "result": 0.03, "unit": "nM"}, {"measurement": "IC50", "setting": "[6]", "result": "5.05 ± 0.13", "unit": "nM"}, {"measurement": "IC50", "setting": "[7]", "result": "2.37 ± 0.39", "unit": "nM"}, {"measurement": "IC50", "setting": "[8]", "result": "4.17 ± 0.14", "unit": "nM"}, {"measurement": "IC50", "setting": "[9]", "result": "0.51 ± 0.09", "unit": "nM"}, {"measurement": "IC50", "setting": "[10]", "result": "4.32 ± 0.78", "unit": "nM"}, {"measurement": "IC50", "setting": "[11]", "result": "49.2 ± 2.19", "unit": "nM"}, {"measurement": "IC50", "setting": "[12]", "result": "46.3 ± 0.79", "unit": "nM"}, {"measurement": "IC50", "setting": "[3]; [13]", "result": 3.55, "unit": "pM"}, {"measurement": "IC50", "setting": "[3]; [14]", "result": "< 10", "unit": "pM"}]}, {"compound": "enfuvirtide [Lipopeptide T-20, reference compound]", "values": [{"measurement": "IC50", "setting": "[4]", "result": "2240 ± 33.1", "unit": "nM"}, {"measurement": "IC50", "setting": "[5]", "result": "166 ± 19", "unit": "nM"}, {"measurement": "IC50", "setting": "[6]", "result": "748 ± 41.9", "unit": "nM"}, {"measurement": "IC50", "setting": "[7]", "result": "317.3 ± 1.65", "unit": "nM"}, {"measurement": "IC50", "setting": "[8]", "result": "1150 ± 88", "unit": "nM"}, {"measurement": "IC50", "setting": "[9]", "result": "1220 ± 120", "unit": "nM"}, {"measurement": "IC50", "setting": "[10]", "result": "1050 ± 74.8", "unit": "nM"}, {"measurement": "IC50", "setting": "[11]", "result": "5950 ± 700", "unit": "nM"}, {"measurement": "IC50", "setting": "[12]", "result": "6950 ± 1140", "unit": "nM"}, {"measurement": "IC50", "setting": "[3]; [13]", "result": "8560 ± 1050", "unit": "pM"}, {"measurement": "IC50", "setting": "[3]; [14]", "result": "8770 ± 1020", "unit": "pM"}]}]}
